# Measurements taken from patent US20240383954A1, “PEPTIDE INHIBITORS OF INTERLEUKIN-23 RECEPTOR AND THEIR USE TO TREAT INFLAMMATORY DISEASES” (Janssen Biotech, Inc., priority 2020, published 2024).
# Where a name gives a salt, the structure may show the parent alone. Positions of bridges follow the written chain, without caps; N, C: chain ends. Non-standard residues stand in square brackets, D forms with d. Residues, ends and D or L forms follow the SMILES beside them. *: point of attachment. Trp(7-Me) = Cc1cccc2c(C[C@H](N)C(=O)O)c[nH]c12; 2Nal = N[C@@H](Cc1ccc2ccccc2c1)C(=O)O; AEF = NCCOc1ccc(C[C@H](N)C(=O)O)cc1; Cyclopropanecarbonyl = O=C(C1CC1)*; αMeF = C[C@](N)(Cc1ccccc1)C(=O)O; Pen = CC(C)(S)[C@H](N)C(=O)O; Isobutyryl = CC(C)C(=O)*; Thp = NC1(C(=O)O)CCOCC1; Hexanoyl = CCCCCC(=O)*; Tfa = O=C(C(F)(F)F)*; Butyryl = CCCC(=O)*
# Biological target: IL-23R (Homo sapiens, UniProt Q5VWK5)
# Test: cell-based
# Details: PBMC pSTAT3 IC50 (nM), PBMCs from healthy donors, IL-23 5 ng/mL, 30 minutes, phosphorylated STAT3
# 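Also: cryopreserved PBMCs stimulated at 37 °C in 5% CO2, then lysed, with phosphorylated STAT3 quantified in lysates using a phospho-STAT panel kit.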
# Chain of IL-23R (Q5VWK5 24-629): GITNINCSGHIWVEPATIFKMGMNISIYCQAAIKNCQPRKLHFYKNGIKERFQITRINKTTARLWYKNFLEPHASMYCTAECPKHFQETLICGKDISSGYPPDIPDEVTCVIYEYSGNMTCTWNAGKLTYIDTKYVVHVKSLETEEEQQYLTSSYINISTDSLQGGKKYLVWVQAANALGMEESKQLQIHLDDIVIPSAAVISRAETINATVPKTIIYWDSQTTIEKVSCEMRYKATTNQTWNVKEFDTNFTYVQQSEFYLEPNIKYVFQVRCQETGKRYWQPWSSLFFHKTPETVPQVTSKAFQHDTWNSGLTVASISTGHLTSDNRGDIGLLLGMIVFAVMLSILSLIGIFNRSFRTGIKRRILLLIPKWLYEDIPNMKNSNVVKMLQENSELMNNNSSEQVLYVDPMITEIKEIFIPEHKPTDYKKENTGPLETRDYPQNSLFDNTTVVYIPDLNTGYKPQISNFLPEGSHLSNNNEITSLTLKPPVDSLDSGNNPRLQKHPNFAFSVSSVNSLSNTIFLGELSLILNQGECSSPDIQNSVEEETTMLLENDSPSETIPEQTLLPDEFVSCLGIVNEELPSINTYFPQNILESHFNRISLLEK
row,Compound,IC50 [nM]
1,"CC(=O)N[C@H](CCCNC(=N)N)C(=O)N[C@@H]1C(=O)N[C@@H](CCC(N)=O)C(=O)N[C@@H]([C@@H](C)O)C(=O)N[C@@H](Cc2c[nH]c3ccccc23)C(=O)N[C@@H](CCC(N)=O)C(=O)N[C@H](C(=O)N[C@@H](Cc2ccc(OCCN)cc2)C(=O)N[C@@H](Cc2ccc3ccccc3c2)C(=O)NC2(C(=O)N[C@@H](CCCCNC(=O)C3CC3)C(=O)N[C@@H](CC(N)=O)C(=O)N[C@@H](Cc3ccccc3)C(N)=O)CCOCC2)C(C)(C)SSC1(C)C [Compound 55, Ac-[(D)Arg]-[Pen]-Q-T-W-Q-[Pen]-Phe[4-(2-aminoethoxy)]-[2-Nal]-[THP]-[Lys(COcPr)]-N-F-NH2] (Ac-[dR][Pen]QTWQ[Pen][AEF][2Nal][Thp]K(Cyclopropanecarbonyl)NF-NH2; disulfide 2-7)",25
2,"CC(=O)NCCCC[C@H](NC(=O)C1(NC(=O)[C@H](Cc2ccc3ccccc3c2)NC(=O)[C@H](Cc2ccc(OCCN)cc2)NC(=O)[C@H]2NC(=O)[C@H](CCC(N)=O)NC(=O)[C@H](Cc3c[nH]c4ccccc34)NC(=O)[C@H]([C@@H](C)O)NC(=O)[C@H](CCC(N)=O)NC(=O)[C@@H](NC(=O)[C@@H](CCCNC(=N)N)NC(C)=O)C(C)(C)SSC2(C)C)CCOCC1)C(=O)N[C@@H](CC(N)=O)C(=O)NC1(C(N)=O)CCOCC1 [Compound 56, Ac-[(D)Arg]-[Pen]-Q-T-W-Q-[Pen]-Phe[4-(2-aminoethoxy)]-[2-Nal]-[THP]-[Lys(Ac)]-N-[THP]-NH2]",4.9
3,"CCC(=O)NCCCC[C@H](NC(=O)C1(NC(=O)[C@H](Cc2ccc3ccccc3c2)NC(=O)[C@H](Cc2ccc(OCCN)cc2)NC(=O)[C@H]2NC(=O)[C@H](CCC(N)=O)NC(=O)[C@H](Cc3c[nH]c4ccccc34)NC(=O)[C@H]([C@@H](C)O)NC(=O)[C@H](CCC(N)=O)NC(=O)[C@@H](NC(=O)[C@@H](CCCNC(=N)N)NC(C)=O)C(C)(C)SSC2(C)C)CCOCC1)C(=O)N[C@@H](CC(N)=O)C(=O)NC1(C(N)=O)CCOCC1 [Compound 57, Ac-[(D)Arg]-[Pen]-Q-T-W-Q-[Pen]-Phe[4-(2-aminoethoxy)]-[2-Nal]-[THP]-[Lys(COEt)]-N-[THP]-NH2]",18
4,"CCCC(=O)NCCCC[C@H](NC(=O)C1(NC(=O)[C@H](Cc2ccc3ccccc3c2)NC(=O)[C@H](Cc2ccc(OCCN)cc2)NC(=O)[C@H]2NC(=O)[C@H](CCC(N)=O)NC(=O)[C@H](Cc3c[nH]c4ccccc34)NC(=O)[C@H]([C@@H](C)O)NC(=O)[C@H](CCC(N)=O)NC(=O)[C@@H](NC(=O)[C@@H](CCCNC(=N)N)NC(C)=O)C(C)(C)SSC2(C)C)CCOCC1)C(=O)N[C@@H](CC(N)=O)C(=O)N[C@@H](Cc1ccccc1)C(N)=O [Compound 58, Ac-[(D)Arg]-[Pen]-Q-T-W-Q-[Pen]-Phe[4-(2-aminoethoxy)]-[2-Nal]-[THP]-[Lys(COPr)]-N-F-NH2] (Ac-[dR][Pen]QTWQ[Pen][AEF][2Nal][Thp]K(Butyryl)NF-NH2; disulfide 2-7)",35
5,"CCCCCC(=O)NCCCC[C@H](NC(=O)C1(NC(=O)[C@H](Cc2ccc3ccccc3c2)NC(=O)[C@H](Cc2ccc(OCCN)cc2)NC(=O)[C@H]2NC(=O)[C@H](CCC(N)=O)NC(=O)[C@H](Cc3c[nH]c4ccccc34)NC(=O)[C@H]([C@@H](C)O)NC(=O)[C@H](CCC(N)=O)NC(=O)[C@@H](NC(=O)[C@@H](CCCNC(=N)N)NC(C)=O)C(C)(C)SSC2(C)C)CCOCC1)C(=O)N[C@@H](CC(N)=O)C(=O)N[C@@H](Cc1ccccc1)C(N)=O [Compound 59, Ac-[(D)Arg]-[Pen]-Q-T-W-Q-[Pen]-Phe[4-(2-aminoethoxy)]-[2-Nal]-[THP]-[Lys(COPent)]-N-F-NH2] (Ac-[dR][Pen]QTWQ[Pen][AEF][2Nal][Thp]K(Hexanoyl)NF-NH2; disulfide 2-7)",67
6,"CC(=O)N[C@H](CCCNC(=N)N)C(=O)N[C@@H]1C(=O)N[C@@H](CCC(N)=O)C(=O)N[C@@H]([C@@H](C)O)C(=O)N[C@@H](Cc2c[nH]c3ccccc23)C(=O)N[C@@H](CCC(N)=O)C(=O)N[C@H](C(=O)N[C@@H](Cc2ccc(OCCN)cc2)C(=O)N[C@@H](Cc2ccc3ccccc3c2)C(=O)NC2(C(=O)N[C@@H](CCCCNC(=O)C(F)(F)F)C(=O)N[C@@H](CC(N)=O)C(=O)N[C@@H](Cc3ccccc3)C(N)=O)CCOCC2)C(C)(C)SSC1(C)C [Compound 60, Ac-[(D)Arg]-[Pen]-Q-T-W-Q-[Pen]-Phe[4-(2-aminoethoxy)]-[2-Nal]-[THP]-[Lys(COCF3)]-N-F-NH2] (Ac-[dR][Pen]QTWQ[Pen][AEF][2Nal][Thp]K(Tfa)NF-NH2; disulfide 2-7)",44
7,"CC(=O)N[C@H](CCCNC(=N)N)C(=O)N[C@@H]1C(=O)N[C@@H](CCC(N)=O)C(=O)N[C@@H]([C@@H](C)O)C(=O)N[C@@H](Cc2c[nH]c3ccccc23)C(=O)N[C@@H](CCC(N)=O)C(=O)N[C@H](C(=O)N[C@@H](Cc2ccc(OCCN)cc2)C(=O)N[C@@H](Cc2ccc3ccccc3c2)C(=O)NC2(C(=O)N[C@@H](CCCCNC(=O)C(C)C)C(=O)N[C@@H](CC(N)=O)C(=O)N[C@@H](Cc3ccccc3)C(N)=O)CCOCC2)C(C)(C)SSC1(C)C [Compound 61, Ac-[(D)Arg]-[Pen]-Q-T-W-Q-[Pen]-Phe[4-(2-aminoethoxy)]-[2-Nal]-[THP]-[Lys(COiPr)]-N-F-NH2] (Ac-[dR][Pen]QTWQ[Pen][AEF][2Nal][Thp]K(Isobutyryl)NF-NH2; disulfide 2-7)",70
8,"CC(=O)NCCCC[C@@H]1NC(=O)[C@H](Cc2c[nH]c3c(C)cccc23)NC(=O)[C@H]([C@@H](C)O)NC(=O)[C@H](CC(N)=O)NC(=O)[C@@H](NC(C)=O)C(C)(C)SSC(C)(C)[C@@H](C(=O)N[C@@H](Cc2ccc(OCCN)cc2)C(=O)N[C@@H](Cc2ccc3ccccc3c2)C(=O)N[C@@](C)(CCCCN)C(=O)N[C@@H](CCCCNC(C)=O)C(=O)N[C@@H](CC(N)=O)C(=O)NC2(C(N)=O)CCOCC2)NC1=O [Compound 75, Ac-[Pen]-N-T-[W(7-Me)]-[Lys(Ac)]-[Pen]-Phe[4-(2-aminoethoxy)]-[2-Nal]-[a-MeLys]-[Lys(Ac)]-N-[THP]-NH2]",8.9
9,"CC(=O)NCCCC[C@@H]1NC(=O)[C@H](Cc2c[nH]c3c(C)cccc23)NC(=O)[C@H]([C@@H](C)O)NC(=O)[C@H](CC(N)=O)NC(=O)[C@@H](NC(C)=O)C(C)(C)SSC(C)(C)[C@@H](C(=O)N[C@@H](Cc2ccc(OCCN)cc2)C(=O)N[C@@H](Cc2ccc3ccccc3c2)C(=O)N[C@@](C)(CCCCN)C(=O)N[C@@H](CCCCNC(C)=O)C(=O)N[C@@H](CC(N)=O)C(=O)N[C@@](C)(Cc2ccccc2)C(N)=O)NC1=O [Compound 76, Ac-[Pen]-N-T-[W(7-Me)]-[Lys(Ac)]-[Pen]-Phe[4-(2-aminoethoxy)]-[2-Nal]-[a-MeLys]-[Lys(Ac)]-N-[a-MePhe]-NH2]",11
10,"CC(=O)NCCCC[C@@H]1NC(=O)[C@H](Cc2c[nH]c3c(C)cccc23)NC(=O)[C@H]([C@@H](C)O)NC(=O)[C@H](CC(N)=O)NC(=O)[C@@H](NC(=O)[C@@H](CCCNC(=N)N)NC(C)=O)C(C)(C)SSC(C)(C)[C@@H](C(=O)N[C@@H](Cc2ccc(OCCN)cc2)C(=O)N[C@@H](Cc2ccc3ccccc3c2)C(=O)NC2(C(=O)N[C@@H](CCC(=O)O)C(=O)N[C@@H](CC(N)=O)C(=O)N[C@@](C)(Cc3ccccc3)C(N)=O)CCOCC2)NC1=O [Compound 77, Ac-[(D)Arg]-[Pen]-N-T-[W(7-Me)]-[Lys(Ac)]-[Pen]-Phe[4-(2-aminoethoxy)]-[2-Nal]-[THP]-E-N-[a-MePhe]-NH2] (Ac-[dR][Pen]NT[Trp(7-Me)]K(Ac)[Pen][AEF][2Nal][Thp]EN[αMeF]-NH2; disulfide 2-7)",6.4
